Laboratory results taken from US10981894B2, “Melanocortin subtype-2 receptor (MC2R) antagonists and uses thereof” (Crinetics Pharmaceuticals, Inc., priority 2018, dated 2021).

Biological target: hMC2 receptor (Homo sapiens, UniProt Q01718)
Test: hMC2 membrane binding assay ([125I]ACTH (1-39) Tyr23, SPA)
Set-up: scale not given here
Conditions: crude hMC2R membranes from CRE-bla-CHO-K1 cells expressing hMC2 receptor and hMRAP; [125I]ACTH (1-39) Tyr23 0.2 nM; 1.5 hours at room temperature; read-out: MC2R binding potency
Outline: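 CRE-bla-CHO-K1 membranes co-expressing hMC2 receptor and hMRAP, preincubated with WGA PVT SPA beads in pH 7.4 HEPES/MgCl2/CaCl2/0.2% BSA buffer. Compounds (typically 0–10,000 nM final) compete with 0.2 nM [125I]ACTH(1-39) Tyr23 for 1.5 h at room temperature. SPA counts give Ki by non-linear regression.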

Chain of hMC2 receptor (Q01718 whole entry): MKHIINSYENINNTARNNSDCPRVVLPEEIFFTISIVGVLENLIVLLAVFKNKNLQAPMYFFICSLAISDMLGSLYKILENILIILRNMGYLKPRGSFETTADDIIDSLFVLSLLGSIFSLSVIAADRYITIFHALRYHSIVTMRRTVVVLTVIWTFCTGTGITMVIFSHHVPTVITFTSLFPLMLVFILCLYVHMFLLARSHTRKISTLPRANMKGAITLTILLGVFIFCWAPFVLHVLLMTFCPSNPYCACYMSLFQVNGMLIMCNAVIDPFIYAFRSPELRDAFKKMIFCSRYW
Chain of hMC2 receptor (Q8TCY5 whole entry partner): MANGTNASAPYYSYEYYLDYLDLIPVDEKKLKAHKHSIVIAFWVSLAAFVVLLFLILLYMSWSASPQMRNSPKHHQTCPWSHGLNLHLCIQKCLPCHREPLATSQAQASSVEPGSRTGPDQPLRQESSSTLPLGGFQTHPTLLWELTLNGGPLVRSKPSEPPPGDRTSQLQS

Compound | Ki
CCOc1ccccc1-c1ccc(N2CCN(C(=O)c3ccc(F)cc3C(F)F)C[C@H]2CC)c(C(=O)N[C@@H]2CCN(C)C2)n1 [Compound 1-293, 3-[(2R)-4-[2-(difluoromethyl)-4-fluorobenzoyl]-2-ethylpiperazin-1-yl]-6-(2-ethoxyphenyl)-N-[(3R)-1-methylpyrrolidin-3-yl]pyridine-2-carboxamide] | < 10 nM
CCOc1ncccc1-c1ccc(N2CCN(C(=O)C34CCC(C(F)(F)F)(CC3)C4)C[C@H]2CC)c(C(=O)NC2CN(C)C2)n1 [Compound 1-394, 2′-ethoxy-5-[(2R)-2-ethyl-4-[4-(trifluoromethyl)bicyclo[2.2.1]heptane-1-carbonyl]piperazin-1-yl]-N-(1-methylazetidin-3-yl)-[2,3′-bipyridine]-6-carboxamide] | < 10 nM
CCOc1ncccc1-c1ccc(N2CCN(C(=O)O[C@@H](C(C)(C)C)C(F)(F)F)C[C@H]2CC)c(C(=O)NCC2CN(C)C2)n1 (single isomer, unassigned) [Compound 1-396, (2S)-1,1,1-trifluoro-3,3-dimethylbutan-2-yl (3R)-4-(2′-ethoxy-6-{[(1-methylazetidin-3-yl)methyl]carbamoyl}-[2,3′-bipyridin]-5-yl)-3-ethylpiperazine-1-carboxylate; or (2R)-1,1,1-trifluoro-3,3-dimethylbutan-2-yl (3R)-4-(2′-ethoxy-6-{[(1-methylazetidin-3-yl)methyl]carbamoyl}-[2,3′-bipyridin]-5-yl)-3-ethylpiperazine-1-carboxylate] | < 10 nM
CCOc1ccccc1-c1ccc(N2CCN(C(=O)C3(C(F)(F)F)CCC3)C[C@H]2CC)c(C(=O)N[C@@H]2CCN(C)C2)n1 [Compound 1-344, 6-(2-ethoxyphenyl)-3-[(2R)-2-ethyl-4-[1-(trifluoromethyl)cyclobutanecarbonyl]piperazin-1-yl]-N-[(3R)-1-methylpyrrolidin-3-yl]pyridine-2-carboxamide] | < 10 nM
CCOc1ncccc1-c1ccc(N2CCN(C(=O)c3ccc(Cl)cc3N3CC[C@H](N)C3)C[C@H]2CC)c(C(=O)NCCN)c1 [Compound 1-57, N-(2-aminoethyl)-2-[(2R)-4-{2-[(3S)-3-aminopyrrolidin-1-yl]-4-chlorobenzoyl}-2-ethylpiperazin-1-yl]-5-(2-ethoxypyridin-3-yl)benzamide] | < 10 nM
CCOc1ncccc1-c1ccc(N2CCN(C(=O)C3(C(F)(F)F)CCCC3)C[C@H]2CC)c(C(=O)NC[C@H]2CCN2)n1 [Compound 1-327, N-{[(2R)-azetidin-2-yl]methyl}-2′-ethoxy-5-[(2R)-2-ethyl-4-[1-(trifluoromethyl)cyclopentanecarbonyl]piperazin-1-yl]-[2,3′-bipyridine]-6-carboxamide] | < 10 nM
CCOc1ccccc1-c1ccc(N2CCN(C(=O)C3(C(F)(F)F)CCCC3)C[C@H]2CC)c(C(=O)N[C@@H]2CCN(C)C2)n1 [Compound 1-341, 6-(2-ethoxyphenyl)-3-[(2R)-2-ethyl-4-[1-(trifluoromethyl)cyclopentanecarbonyl]piperazin-1-yl]-N-[(3R)-1-methylpyrrolidin-3-yl]pyridine-2-carboxamide] | < 10 nM
CCOc1ncccc1-c1ccc(N2CCN(C(=O)C3(C(F)(F)F)CCCC3)C[C@H]2CC)c(C(=O)NC[C@H]2CCCN2C)n1 [Compound 1-333, 2′-ethoxy-5-[(2R)-2-ethyl-4-[1-(trifluoromethyl)cyclopentanecarbonyl]piperazin-1-yl]-N-{[(2R)-1-methylpyrrolidin-2-yl]methyl}-[2,3′-bipyridine]-6-carboxamide] | < 10 nM
CCOc1ncccc1-c1ccc(N2CCN(C(=O)C3C4CC5CC(C4)CC3C5)C[C@H]2CC)c(C(=O)NC2CN(C)C2)n1 (stereo partly drawn) [Compound 1-238, 5-[(2R)-4-(adamantane-2-carbonyl)-2-ethylpiperazin-1-yl]-2′-ethoxy-N-(1-methylazetidin-3-yl)-[2,3′-bipyridine]-6-carboxamide] | < 10 nM
CCOc1ncccc1-c1ccc(N2CCN(C(=O)c3ccc(Cl)cc3C#N)C[C@H]2CC)c(C(=O)N[C@@H]2CCNC2)c1 [Compound 1-142, 2-[(2R)-4-(4-chloro-2-cyanobenzoyl)-2-ethylpiperazin-1-yl]-5-(2-ethoxypyridin-3-yl)-N-[(3R)-pyrrolidin-3-yl]benzamide] | < 10 nM
CCOc1ccccc1-c1ccc(N2CCN(C(=O)C3(CC(F)(F)F)CCC3)C[C@H]2CC)c(C(=O)N[C@@H]2CCN(C)C2)n1 [Compound 1-349, 6-(2-ethoxyphenyl)-3-[(2R)-2-ethyl-4-[1-(2,2,2-trifluoroethyl)cyclobutanecarbonyl]piperazin-1-yl]-N-[(3R)-1-methylpyrrolidin-3-yl]pyridine-2-carboxamide] | < 10 nM

Continued, values first:

Ki | Compound
< 10 nM | CCOc1ncccc1-c1ccc(N2CCN(C(=O)c3ccc(Cl)cc3C)C[C@H]2CC)c(C(=O)NCCN)c1 [Compound 1-87, N-(2-aminoethyl)-2-[(2R)-4-(4-chloro-2-methylbenzoyl)-2-ethylpiperazin-1-yl]-5-(2-ethoxypyridin-3-yl)benzamide]
< 10 nM | CCOc1ncccc1-c1ccc(N2CCN(C(=O)c3cc(Cl)sc3Cl)C[C@H]2CC)c(C(=O)N[C@@H]2CCN(C)C2)n1 [Compound 1-378, 5-[(2R)-4-(2,5-dichlorothiophene-3-carbonyl)-2-ethylpiperazin-1-yl]-2′-ethoxy-N-[(3R)-1-methylpyrrolidin-3-yl]-[2,3′-bipyridine]-6-carboxamide]
< 10 nM | CCOc1ncccc1-c1ccc(N2CCN(C(=O)c3ccc(Cl)cc3C(F)F)C[C@H]2CC)c(C(=O)N[C@@H]2CCN(C)C2)n1 [Compound 1-262, 5-[(2R)-4-[4-chloro-2-(difluoromethyl)benzoyl]-2-ethylpiperazin-1-yl]-2′-ethoxy-N-[(3R)-1-methylpyrrolidin-3-yl]-[2,3′-bipyridine]-6-carboxamide]
< 10 nM | CCOc1ncccc1-c1ccc(N2CCN(C(=O)c3ccc(Cl)cc3C(F)(F)F)C[C@H]2CC)c(C(=O)N[C@@H]2CCN(C)C2)c1 [Compound 1-48, 2-[(2R)-4-[4-chloro-2-(trifluoromethyl)benzoyl]-2-ethylpiperazin-1-yl]-5-(2-ethoxypyridin-3-yl)-N-[(3R)-1-methylpyrrolidin-3-yl]benzamide]
< 10 nM | CCOc1ncccc1-c1ccc(N2CCN(C(=O)c3ccc(F)cc3C(F)(F)F)C[C@H]2CC)c(CN)n1 [Compound 2-20, 1-{2′-ethoxy-5-[(2R)-2-ethyl-4-[4-fluoro-2-(trifluoromethyl)benzoyl]piperazin-1-yl]-[2,3′-bipyridin]-6-yl}methanamine]
< 10 nM | CCOc1ccccc1-c1ccc(N2CCN(C(=O)c3ccc(Cl)cc3C(F)(F)F)C[C@H]2CC)c(C(=O)NC2CN(C)C2)n1 [Compound 1-221, 3-[(2R)-4-[4-chloro-2-(trifluoromethyl)benzoyl]-2-ethylpiperazin-1-yl]-6-(2-ethoxyphenyl)-N-(1-methylazetidin-3-yl)pyridine-2-carboxamide]
< 10 nM | CCOc1ccccc1-c1ccc(N2CCN(C(=O)c3ccc(Cl)cc3C(F)(F)F)C[C@H]2CC)c(C(=O)N[C@@H]2CCNC2)n1 [Compound 1-209, 3-[(2R)-4-[4-chloro-2-(trifluoromethyl)benzoyl]-2-ethylpiperazin-1-yl]-6-(2-ethoxyphenyl)-N-[(3R)-pyrrolidin-3-yl]pyridine-2-carboxamide]
< 10 nM | CCOc1ncccc1-c1ccc(N2CCN(C(=O)c3ccc(Cl)cc3C(F)F)C[C@H]2CC)c(C(=O)NCCN(C)C)c1F [Compound 1-184, 6-[(2R)-4-[4-chloro-2-(difluoromethyl)benzoyl]-2-ethylpiperazin-1-yl]-N-[2-(dimethylamino)ethyl]-3-(2-ethoxypyridin-3-yl)-2-fluorobenzamide]
< 10 nM | CC[C@@H]1CN(C(=O)c2ccc(OC)nc2C(F)(F)F)CCN1c1ccc(-c2cccnc2OC)nc1C(=O)NC1CN(C)C1 [Compound 1-246, 5-[(2R)-2-ethyl-4-[6-methoxy-2-(trifluoromethyl)pyridine-3-carbonyl]piperazin-1-yl]-2′-methoxy-N-(1-methylazetidin-3-yl)-[2,3′-bipyridine]-6-carboxamide]
< 10 nM | CCOc1ccc(C(=O)N2CCN(c3ccc(-c4ccccc4OCC)nc3C(=O)NC3CN(C)C3)[C@H](CC)C2)c(C(F)(F)F)n1 [Compound 1-237, 3-[(2R)-4-[6-ethoxy-2-(trifluoromethyl)pyridine-3-carbonyl]-2-ethylpiperazin-1-yl]-6-(2-ethoxyphenyl)-N-(1-methylazetidin-3-yl)pyridine-2-carboxamide]
< 10 nM | CCOc1ncccc1-c1ccc(N2CCN(C(=O)c3ccc(Cl)cc3C(F)(F)F)C[C@H]2CC)c(C(=O)NCCN2CCCC2)c1 [Compound 1-49, 2-[(2R)-4-[4-chloro-2-(trifluoromethyl)benzoyl]-2-ethylpiperazin-1-yl]-5-(2-ethoxypyridin-3-yl)-N-[2-(pyrrolidin-1-yl)ethyl]benzamide]
< 10 nM | CCNc1ccc(C(=O)N2CCN(c3ccc(-c4cccnc4OCC)nc3C(=O)NCCNC)[C@H](CC)C2)c(C(F)(F)F)n1 [Compound 1-225, 2′-ethoxy-5-[(2R)-2-ethyl-4-[6-(ethylamino)-2-(trifluoromethyl)pyridine-3-carbonyl]piperazin-1-yl]-N-[2-(methylamino)ethyl]-[2,3′-bipyridine]-6-carboxamide]
< 10 nM | CCOc1ncccc1-c1ccc(N2CCN(C(=O)c3ccc(Cl)cc3C(F)(F)F)C[C@H]2CC)c(C(=O)N[C@@H]2CCN(C)C2)n1 [Compound 1-152, 5-[(2R)-4-[4-chloro-2-(trifluoromethyl)benzoyl]-2-ethylpiperazin-1-yl]-2′-ethoxy-N-[(3R)-1-methylpyrrolidin-3-yl]-[2,3′-bipyridine]-6-carboxamide]
